# Measured values: ChEMBL document CHEMBL3045466, “Novel 2H-[1,2,4]thiadiazolo[2,3-a]pyrimidine derivatives bearing chiral S()-2-(4-chlorophenyl)-3-methylbutyric acid moiety: Design, synthesis and herbicidal activity” (2010)
# What was measured:
# Assay type in all cases: functional
# Settings in all cases: 144 h, read-out: GI
# Digitaria sanguinalis [1] = assay: Herbicidal activity against Digitaria sanguinalis (hairy crabgrass) assessed as inhibition of root growth at 50 ppm after 6 days by flat-utensil method relative to control
# Echinochloa crus-galli [2] = assay: Herbicidal activity against Echinochloa crus-galli (barnyard grass) assessed as inhibition of root growth at 50 ppm after 6 days by flat-utensil method relative to control
# Amaranthus retroflexus [3] = assay: Herbicidal activity against Amaranthus retroflexus assessed as inhibition of root growth at 100 ppm after 6 days by flat-utensil method relative to control
# Echinochloa crus-galli [4] = assay: Herbicidal activity against Echinochloa crus-galli (barnyard grass) assessed as inhibition of stalk growth at 50 ppm after 6 days by flat-utensil method relative to control
# Echinochloa crus-galli [5] = assay: Herbicidal activity against Echinochloa crus-galli (barnyard grass) assessed as inhibition of root growth at 100 ppm after 6 days by flat-utensil method relative to control
# Amaranthus retroflexus [6] = assay: Herbicidal activity against Amaranthus retroflexus assessed as inhibition of stalk growth at 100 ppm after 6 days by flat-utensil method relative to control
# Digitaria sanguinalis [7] = assay: Herbicidal activity against Digitaria sanguinalis (hairy crabgrass) assessed as inhibition of stalk growth at 100 ppm after 6 days by flat-utensil method relative to control
# Sorghum bicolor [8] = assay: Herbicidal activity against Sorghum bicolor assessed as inhibition of root growth at 50 ppm after 6 days by flat-utensil method relative to control
# Chenopodium ficifolium [9] = assay: Herbicidal activity against Chenopodium ficifolium assessed as inhibition of stalk growth at 100 ppm after 6 days by flat-utensil method relative to control
# Chenopodium ficifolium [10] = assay: Herbicidal activity against Chenopodium ficifolium assessed as inhibition of stalk growth at 50 ppm after 6 days by flat-utensil method relative to control
# Amaranthus retroflexus [11] = assay: Herbicidal activity against Amaranthus retroflexus assessed as inhibition of stalk growth at 50 ppm after 6 days by flat-utensil method relative to control
# Chenopodium ficifolium [12] = assay: Herbicidal activity against Chenopodium ficifolium assessed as inhibition of root growth at 50 ppm after 6 days by flat-utensil method relative to control
# Sorghum bicolor [13] = assay: Herbicidal activity against Sorghum bicolor assessed as inhibition of root growth at 100 ppm after 6 days by flat-utensil method relative to control
# Echinochloa crus-galli [14] = assay: Herbicidal activity against Echinochloa crus-galli (barnyard grass) assessed as inhibition of stalk growth at 100 ppm after 6 days by flat-utensil method relative to control
# Digitaria sanguinalis [15] = assay: Herbicidal activity against Digitaria sanguinalis (hairy crabgrass) assessed as inhibition of stalk growth at 50 ppm after 6 days by flat-utensil method relative to control
# Sorghum bicolor [16] = assay: Herbicidal activity against Sorghum bicolor assessed as inhibition of stalk growth at 50 ppm after 6 days by flat-utensil method relative to control
# Chenopodium ficifolium [17] = assay: Herbicidal activity against Chenopodium ficifolium assessed as inhibition of root growth at 100 ppm after 6 days by flat-utensil method relative to control
# Sorghum bicolor [18] = assay: Herbicidal activity against Sorghum bicolor assessed as inhibition of stalk growth at 100 ppm after 6 days by flat-utensil method relative to control
# Digitaria sanguinalis [19] = assay: Herbicidal activity against Digitaria sanguinalis (hairy crabgrass) assessed as inhibition of root growth at 100 ppm after 6 days by flat-utensil method relative to control
# Amaranthus retroflexus [20] = assay: Herbicidal activity against Amaranthus retroflexus assessed as inhibition of root growth at 50 ppm after 6 days by flat-utensil method relative to control
Structure (SMILES),inhibition of growth at 50 ppm (Digitaria sanguinalis [1]),inhibition of growth at 50 ppm (Echinochloa crus-galli [2]),inhibition of growth at 100 ppm (Amaranthus retroflexus [3]),inhibition of growth at 50 ppm (Echinochloa crus-galli [4]),inhibition of growth at 100 ppm (Echinochloa crus-galli [5]),inhibition of growth at 100 ppm (Amaranthus retroflexus [6]),inhibition of growth at 100 ppm (Digitaria sanguinalis [7]),inhibition of growth at 50 ppm (Sorghum bicolor [8]),inhibition of growth at 100 ppm (Chenopodium ficifolium [9]),inhibition of growth at 50 ppm (Chenopodium ficifolium [10]),inhibition of growth at 50 ppm (Amaranthus retroflexus [11]),inhibition of growth at 50 ppm (Chenopodium ficifolium [12]),inhibition of growth at 100 ppm (Sorghum bicolor [13]),inhibition of growth at 100 ppm (Echinochloa crus-galli [14]),inhibition of growth at 50 ppm (Digitaria sanguinalis [15]),inhibition of growth at 50 ppm (Sorghum bicolor [16]),inhibition of growth at 100 ppm (Chenopodium ficifolium [17]),inhibition of growth at 100 ppm (Sorghum bicolor [18]),inhibition of growth at 100 ppm (Digitaria sanguinalis [19]),inhibition of growth at 50 ppm (Amaranthus retroflexus [20])
COc1cc(OC)n2s/c(=N\C(=O)[C@H](c3ccc(Cl)cc3)C(C)C)nc2n1,40%,20%,95%,40%,20%,80%,90%,20%,90%,90%,45%,90%,50%,70%,50%,25%,90%,40%,80%,40%
COc1cc(Cl)n2s/c(=N\C(=O)[C@H](c3ccc(Cl)cc3)C(C)C)nc2n1,0%,80%,30%,60%,100%,20%,10%,60%,20%,10%,0%,10%,80%,70%,0%,60%,10%,80%,10%,0%
Cc1cc(O)n2s/c(=N\C(=O)[C@H](c3ccc(Cl)cc3)C(C)C)nc2n1,20%,70%,90%,30%,80%,95%,10%,30%,100%,70%,60%,50%,30%,40%,10%,35%,80%,40%,25%,50%
CC(C)[C@H](C(=O)/N=c1/nc2nc(Cl)cc(Cl)n2s1)c1ccc(Cl)cc1,0%,30%,80%,40%,50%,75%,10%,20%,40%,20%,50%,30%,20%,75%,0%,20%,60%,30%,0%,45%
Cc1cc(C)n2s/c(=N\C(=O)C(c3ccc(Cl)cc3)C(C)C)nc2n1 (racemic),30%,0%,50%,20%,10%,20%,60%,0%,70%,40%,10%,35%,0%,25%,40%,0%,60%,10%,70%,20%
COc1cc(OC)n2s/c(=N\C(=O)C(c3ccc(Cl)cc3)C(C)C)nc2n1 (racemic),30%,0%,45%,30%,0%,30%,60%,0%,50%,20%,30%,20%,0%,30%,35%,10%,50%,20%,60%,20%
Cc1cc(Cl)n2s/c(=N\C(=O)[C@H](c3ccc(Cl)cc3)C(C)C)nc2n1,30%,70%,100%,10%,90%,100%,30%,20%,85%,80%,90%,80%,40%,30%,30%,10%,90%,20%,40%,85%
Cc1cc(C)n2s/c(=N\C(=O)[C@H](c3ccc(Cl)cc3)C(C)C)nc2n1,45%,30%,100%,50%,30%,95%,90%,20%,80%,50%,50%,50%,20%,80%,55%,20%,85%,25%,80%,50%
